Experimental data published in US10138253B2, “Imidazopyridine macrocycles as inhibitors of human immunodeficiency virus replication” (priority 2015, dated 2018).
Like-named read-outs stand apart in the source and are kept apart here.

How the values were obtained:
[1] = ether bond, 20-membered ring, PPh3/DIAD, THF
[2] = ether bond, PPh3/DIAD, THF
[3] = from COC(=O)[C@@H](OC(C)(C)C)c1c(C)c(C)c2nc(-c3cccc(-c4cc(F)c(F)cc4O)c3)c(C)n2c1N1CCC(C)(OCCOC[C@@H](C)O)CC1, 2.77 mM, 1.0 h, 2 steps
[4] = from COC(=O)[C@@H](OC(C)(C)C)c1c(C)c(C)c2nc(-c3cccc(-c4ccc(C)cc4O)c3)cn2c1N1CCC(C)(OCCOC[C@@H](C)O)CC1, 20.0 mM, 0.5 h
[5] = from COC(=O)[C@@H](OC(C)(C)C)c1c(C)c(C)c2nc(-c3cccc(-c4cc(C)ccc4O)c3)cn2c1N1CCC(C)(OCCOC[C@@H](C)O)CC1, 3.49 mM, 25.0 °C, 16.0 h
[6] = from COC(=O)[C@@H](OC(C)(C)C)c1c(C)c(C)c2nc(-c3cccc(-c4cc(F)ccc4O)c3)cn2c1N1CCC(C)(OCCOC[C@@H](C)O)CC1, 47.0 mM, 18.0 h
[7] = from COC(=O)[C@@H](OC(C)(C)C)c1c(C)cc2nc(-c3cccc(-c4c(O)cc(C)cc4F)c3)cn2c1N1CCC(C)(OCCOC[C@@H](C)O)CC1, 42.7 mM, 0.5 h, 2 steps
[8] = from COC(=O)[C@@H](OC(C)(C)C)c1c(C)cc2nc(-c3cccc(-c4ccc(C)cc4O)c3)cn2c1N1CCC(C)(OCCOC[C@@H](C)O)CC1, 1.41 mM, 1.0 h
[9] = from COC(=O)[C@@H](OC(C)(C)C)c1c(C)cc2nc(-c3cccc(-c4cc(F)c(F)cc4O)c3)cn2c1N1CCC(C)(OCCOC[C@@H](C)O)CC1, 10.0 mM, 0.5 h
[10] = from COC(=O)[C@@H](OC(C)(C)C)c1c(C)cc2nc(-c3cccc(-c4cc(C)ccc4O)c3)cn2c1N1CCC(C)(OCCOC[C@@H](C)O)CC1, 39.2 mM, 18.0 h, 2 steps

COC(=O)[C@@H](OC(C)(C)C)c1c(C)c(C)c2nc3c(C)n2c1N1CCC(C)(CC1)OCCOC[C@H](C)Oc1cc(F)c(F)cc1-c1cccc-3c1
ring closure, isolated yield [1, 3]: 30%
ring closure, yield of all isomers [2, 3]: 30%

COC(=O)[C@@H](OC(C)(C)C)c1c(C)c(C)c2nc3cn2c1N1CCC(C)(CC1)OCCOC[C@H](C)Oc1cc(C)ccc1-c1cccc-3c1
ring closure, isolated yield [1, 4]: 47%
ring closure, yield of all isomers [2, 4]: 47%

COC(=O)[C@@H](OC(C)(C)C)c1c(C)c(C)c2nc3cn2c1N1CCC(C)(CC1)OCCOC[C@H](C)Oc1ccc(C)cc1-c1cccc-3c1
ring closure, isolated yield [1, 5]: 60%
ring closure, yield of all isomers [2, 5]: 60%

COC(=O)[C@@H](OC(C)(C)C)c1c(C)c(C)c2nc3cn2c1N1CCC(C)(CC1)OCCOC[C@H](C)Oc1ccc(F)cc1-c1cccc-3c1
ring closure, isolated yield [1, 6]: 59%
ring closure, yield of all isomers [2, 6]: 59%

COC(=O)[C@@H](OC(C)(C)C)c1c(C)cc2nc3cn2c1N1CCC(C)(CC1)OCCOC[C@H](C)Oc1cc(C)cc(F)c1-c1cccc-3c1
ring closure, isolated yield [1, 7]: 6%
ring closure, yield of all isomers [2, 7]: 6%

COC(=O)[C@@H](OC(C)(C)C)c1c(C)cc2nc3cn2c1N1CCC(C)(CC1)OCCOC[C@H](C)Oc1cc(C)ccc1-c1cccc-3c1
ring closure, isolated yield [1, 8]: 65%
ring closure, yield of all isomers [2, 8]: 65%

COC(=O)[C@@H](OC(C)(C)C)c1c(C)cc2nc3cn2c1N1CCC(C)(CC1)OCCOC[C@H](C)Oc1cc(F)c(F)cc1-c1cccc-3c1
ring closure, isolated yield [1, 9]: 95%
ring closure, yield of all isomers [2, 9]: 95%

COC(=O)[C@@H](OC(C)(C)C)c1c(C)cc2nc3cn2c1N1CCC(C)(CC1)OCCOC[C@H](C)Oc1ccc(C)cc1-c1cccc-3c1
ring closure, isolated yield [1, 10]: 65%
ring closure, yield of all isomers [2, 10]: 65%
